Data set [1] is described as follows: Comparative intrinsic dissolution testing (Wood's apparatus). Type of data set: physicochemical. The settings on record: 900 mL distilled water, 37° C., 50 rpm, sample compressed at 1.5 metric tons for 1 minute. Here is the method:
Intrinsic dissolution rate (IDR) measurements were performed using a Wood's apparatus. Samples were prepared by compressing an amount (267 mg Form II; 258 mg APO-I) of sample at 1.5 metric tons for 1 minute. A dissolution medium consisting of 900 mL distilled water maintained at 37° C., and rotation speed of 50 rpm, was used for each experiment.

The nature of data set [2]: PXRD study of crystalline form stability in a 27° C./60% RH stability chamber. The data set is classed as physicochemical. The settings on record: capped and uncapped samples, at least 5 weeks. As to the method: Remdesivir Form APO-I can be characterized by a PXRD diffractogram comprising, among other peaks, characteristic peaks, expressed in degrees 2θ (±0.2°), at 4.0°, 17.0° and 20.3°. Preferably, the PXRD diffractogram further comprises at least three peaks, expressed in degrees 2θ (±0.2°), selected from the group consisting of 10.4°, 13.0°, 14.1°, 15.3°, 17.5°, 18.3°, 22.1°, 23.9°, 25.1° and 25.9°. More preferably, the PXRD diffractogram further comprises peaks, expressed in degrees 2θ (±0.2°), at 10.4°, 13.0°, 14.1°, 15.3°, 17.5°, 18.3°, 22.1°, 23.9°, 25.1° and 25.9°.
The PXRD diffractogram was recorded on a Bruker D8 Discover powder X-ray diffractometer (Bruker-AXS, Karlsruhe, Germany). The generator was a Micro-focus X-ray source (Incoatec IμS Cu anode, λ=1.54060 Å) with a voltage of 50 kV and current of 1.00 mA. X-rays were focused with a micro mask 0.1 mm plug-in microslit. One frame was collected using a still scan with a PILATUS3 R 100K-A detector at the distance of 154.72 mm from the sample. Raw data was evaluated using the program EVA (Bruker-AXS, Karlsruhe, Germany).

Data on two compounds can be found in patent US11377456B2, “Crystalline form of Remdesivir” (Apotex Inc., priority 2020, dated 2022).

On to `CCC(CC)COC(=O)[C@H](C)N[P@](=O)(OC[C@H]1O[C@@](C#N)(c2ccc3c(N)ncnn23)[C@H](O)[C@@H]1O)Oc1ccccc1` [Remdesivir Form APO-I], for which the “Intrinsic Dissolution Rate” value in data set [1] stood at 0.013 mg min^−1 cm^−2. The “Change in crystalline form by PXRD (polymorphic stability)” value in data set [2] was “no change in the crystalline form occurred”. Take `CCC(CC)COC(=O)[C@H](C)N[P@](=O)(OC[C@H]1O[C@@](C#N)(c2ccc3c(N)ncnn23)[C@H](O)[C@@H]1O)Oc1ccccc1` [Remdesivir Form II, reference compound]: in data set [1], the “Intrinsic Dissolution Rate” value worked out at 0.0083 mg min^−1 cm^−2.
